Measurements: patent publication US9247759B2, “Identification of human T2R receptors that respond to bitter compounds that elicit the bitter taste in compositions, and the use thereof in assays to identify compounds that inhibit (block) bitter taste in compositions and use thereof” (SENOMYX, INC., priority 2007, dated 2016)
Like-named read-outs stand apart in the source and are kept apart here.

Legend:
hT2R14 [1] = biological target: T1, hT2R14 (Homo sapiens (Human), UniProt Q9NYV8); experiment: hT2R14 antagonist high-throughput FLIPR assay, stable cell line with G16g44, agonist aristolochic acid; assay type: cell-based
T1 sequence (Q9NYV8 whole entry): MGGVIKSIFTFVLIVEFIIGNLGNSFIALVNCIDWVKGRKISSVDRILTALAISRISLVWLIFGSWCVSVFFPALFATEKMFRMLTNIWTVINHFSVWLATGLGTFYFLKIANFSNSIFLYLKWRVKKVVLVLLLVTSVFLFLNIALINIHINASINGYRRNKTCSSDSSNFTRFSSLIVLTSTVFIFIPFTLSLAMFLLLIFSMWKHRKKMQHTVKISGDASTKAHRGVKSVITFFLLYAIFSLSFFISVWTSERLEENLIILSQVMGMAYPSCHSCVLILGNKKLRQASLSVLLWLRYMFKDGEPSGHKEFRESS
Summary of the method: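 HEK293 cells stably expressing hT2R14 with chimeric G16g44 were stimulated with aristolochic acid (3 μM), giving 70-80% of maximal receptor activity. Test compounds were added together with the agonist, and antagonism was read as fluorescent calcium signal on FLIPR.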

hT2R3 = hT2R3 (Homo sapiens (Human), UniProt Q9NYW6); experiment: hT2R panel inhibition, transient HEK293 G16g44, agonist Chloroquine pH6.5 50 μM; assay type: cell-based; conditions: HEK293, compound at 25 μM; receptor activated to EC80 with the corresponding agonist; read-out: screening result against bitter receptor 3
Chain of hT2R3 (Q9NYW6 whole entry): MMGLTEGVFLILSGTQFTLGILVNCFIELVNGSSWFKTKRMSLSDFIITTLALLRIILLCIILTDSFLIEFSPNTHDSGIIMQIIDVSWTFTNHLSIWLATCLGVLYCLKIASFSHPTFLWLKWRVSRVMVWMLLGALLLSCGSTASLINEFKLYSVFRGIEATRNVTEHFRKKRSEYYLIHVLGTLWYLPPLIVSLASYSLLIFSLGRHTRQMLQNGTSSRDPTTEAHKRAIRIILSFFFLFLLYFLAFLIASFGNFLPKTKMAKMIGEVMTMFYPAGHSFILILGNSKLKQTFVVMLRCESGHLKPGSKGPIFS
Summary of the method: (§1)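 Here, inhibition reflects how much the test compound lowers activation of a transiently expressed human bitter receptor stimulated at EC80. Twenty-two such receptors were tested separately.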

hT2R4 = hT2R4 (Homo sapiens (Human), UniProt Q9NYW5); experiment: hT2R panel inhibition, transient HEK293 G16g44, agonist Chloroquine pH6.5 5 mM; assay type: cell-based; conditions: HEK293, compound at 25 μM; receptor activated to EC80 with the corresponding agonist; class symbols; read-out: screening result against bitter receptor 4
Chain of hT2R4 (Q9NYW5 whole entry): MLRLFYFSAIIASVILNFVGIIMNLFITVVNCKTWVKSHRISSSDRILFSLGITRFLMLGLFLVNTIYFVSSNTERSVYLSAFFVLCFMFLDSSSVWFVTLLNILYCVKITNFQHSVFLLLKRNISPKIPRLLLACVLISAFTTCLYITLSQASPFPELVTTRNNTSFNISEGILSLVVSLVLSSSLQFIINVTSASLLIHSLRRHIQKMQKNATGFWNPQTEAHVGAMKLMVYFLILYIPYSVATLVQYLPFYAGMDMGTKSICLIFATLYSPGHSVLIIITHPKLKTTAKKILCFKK
Protocol: (§2) Specifically, in order to evaluate the inhibitory selectivity of the Compound C compound, this compound was tested against 22 human T2Rs which were deorphaned by Senomyx. These receptors and the bitter ligands that activate these human T2Rs are reported in earlier patent applications which are incorporated by reference herein. These 22 human T2Rs are hT2R1, 3, 4, 5, 7, 8, 9, 10, 13, 14, 16, 44, 51, 54, 55, 61, 63, 64, 65, 67, 71 and 75. The amino acid and nucleic acid sequences of all of these T2Rs may be found in these earlier patent applications. These human T2Rs were each individually transiently transfected into HEK293 cells that stably express the promiscuous G protein G16g44 and functional assays were effected using these receptors as disclosed in these same patent applications. […] The ligands were used at EC80 concentration levels. The list of bitter ligands utilized and the tested ligand concentrations are contained in Table 5 of this example.
(§3) Relating to the foregoing, FIG. 5 contains experimental results wherein Compound C was tested with different agonist compounds. The inhibition activity is represented by the reduction of receptor activity in the presence of Compound C. […] These 13 hT2Rs are hT2R3, 7, 10, 14, 16, 44, 51, 55, 61, 63, 64, 65, and 71.

hT2R10 = hT2R10 (Homo sapiens (Human), UniProt Q9NYW0); experiment: hT2R panel inhibition, transient HEK293 G16g44, agonist Strychnine 50 μM; assay type: cell-based; conditions: HEK293, read-out: screening result against bitter receptor 10, compound at 25 μM; receptor activated to EC80 with the corresponding agonist
Chain of hT2R10 (Q9NYW0 whole entry): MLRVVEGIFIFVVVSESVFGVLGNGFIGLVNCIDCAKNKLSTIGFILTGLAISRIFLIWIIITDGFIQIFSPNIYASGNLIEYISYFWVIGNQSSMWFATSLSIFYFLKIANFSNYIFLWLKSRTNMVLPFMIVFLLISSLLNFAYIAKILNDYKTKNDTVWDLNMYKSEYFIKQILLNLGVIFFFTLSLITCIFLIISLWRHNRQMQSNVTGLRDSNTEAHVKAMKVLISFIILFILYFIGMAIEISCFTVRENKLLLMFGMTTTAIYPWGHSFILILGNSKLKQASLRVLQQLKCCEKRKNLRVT

hT2R14 [2] = biological target: T1, hT2R14; experiment: hT2R panel inhibition, transient HEK293 G16g44, agonist Aristolochic Acid 2 μM; assay type: cell-based; conditions: HEK293, compound at 25 μM; receptor activated to EC80 with the corresponding agonist; read-out: screening result against bitter receptor 14
Summary of the method: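 Each hT2R was transiently transfected into HEK293 cells stably expressing G16g44 and assayed functionally for inhibition of agonist response. Agonists were applied at EC80: andrographolide at 0.5 mM for hT2R8 and aristolochic acid at 2 μM for hT2R14.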

hT2R16 = hT2R16 (Homo sapiens (Human), UniProt Q9NYV7); experiment: hT2R panel inhibition, transient HEK293 G16g44, agonist Salicin 1 mM; assay type: cell-based; conditions: HEK293, compound at 25 μM; receptor activated to EC80 with the corresponding agonist; read-out: screening result against bitter receptor 16
Chain of hT2R16 (Q9NYV7 whole entry): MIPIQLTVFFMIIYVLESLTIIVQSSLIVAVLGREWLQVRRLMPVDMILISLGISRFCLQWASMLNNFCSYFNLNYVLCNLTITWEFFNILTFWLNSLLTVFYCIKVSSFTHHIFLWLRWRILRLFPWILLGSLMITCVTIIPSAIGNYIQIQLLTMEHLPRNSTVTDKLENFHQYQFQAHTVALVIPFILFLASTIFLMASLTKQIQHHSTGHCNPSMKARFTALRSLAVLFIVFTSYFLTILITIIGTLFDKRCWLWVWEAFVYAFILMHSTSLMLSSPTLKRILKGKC
Summary of the method: as §1

hT2R44 = experiment: hT2R panel inhibition, transient HEK293 G16g44, agonist Denatonium 0.5 μM; assay type: cell-based, human; conditions: compound at 25 μM; receptor activated to EC80 with the corresponding agonist
Summary of the method: as §1

hT2R51 = hT2R51 (Homo sapiens (Human), UniProt P59533); experiment: hT2R panel inhibition, transient HEK293 G16g44, agonist Prop 2.5 μM; assay type: cell-based; conditions: HEK293, compound at 25 μM; receptor activated to EC80 with the corresponding agonist; read-out: screening result against bitter receptor 51
Chain of hT2R51 (P59533 whole entry): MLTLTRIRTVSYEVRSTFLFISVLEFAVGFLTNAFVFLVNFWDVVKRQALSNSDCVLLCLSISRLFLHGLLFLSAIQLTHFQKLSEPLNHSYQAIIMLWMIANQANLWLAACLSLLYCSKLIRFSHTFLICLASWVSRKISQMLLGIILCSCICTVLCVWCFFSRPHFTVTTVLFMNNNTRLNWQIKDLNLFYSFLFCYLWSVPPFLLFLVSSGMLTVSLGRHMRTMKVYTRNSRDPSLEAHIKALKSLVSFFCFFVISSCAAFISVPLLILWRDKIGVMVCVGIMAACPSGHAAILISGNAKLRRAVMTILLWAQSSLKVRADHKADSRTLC
Summary of the method: as §1

hT2R54 = experiment: hT2R panel inhibition, transient HEK293 G16g44, agonist Ranitidine 5 mM; assay type: cell-based, human; conditions: compound at 25 μM; receptor activated to EC80 with the corresponding agonist
Summary of the method: as §1

hT2R55 = experiment: hT2R panel inhibition, transient HEK293 G16g44, agonist Cinchonine 150 μM; assay type: cell-based, human; conditions: compound at 25 μM; receptor activated to EC80 with the corresponding agonist
Summary of the method: as §1

hT2R61 = hT2R61 (Homo sapiens (Human), UniProt P59537); experiment: hT2R panel inhibition, transient HEK293 G16g44, agonist Aristolochic Acid 25 nM; assay type: cell-based; conditions: HEK293, compound at 25 μM; receptor activated to EC80 with the corresponding agonist; read-out: screening result against bitter receptor 61
Chain of hT2R61 (P59537 whole entry): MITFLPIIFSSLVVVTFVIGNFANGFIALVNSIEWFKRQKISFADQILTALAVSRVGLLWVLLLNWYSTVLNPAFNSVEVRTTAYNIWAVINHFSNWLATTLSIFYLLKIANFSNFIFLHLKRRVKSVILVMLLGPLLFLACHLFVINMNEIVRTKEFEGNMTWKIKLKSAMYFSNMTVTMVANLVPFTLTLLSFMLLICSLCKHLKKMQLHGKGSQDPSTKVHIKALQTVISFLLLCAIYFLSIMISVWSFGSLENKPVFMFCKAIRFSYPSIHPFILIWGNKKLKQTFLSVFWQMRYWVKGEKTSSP
Summary of the method: as §1

hT2R63 = experiment: hT2R panel inhibition, transient HEK293 G16g44, agonist Caffeine 1 mM or Andrographolide 100 μM; assay type: cell-based, human; conditions: compound at 25 μM; receptor activated to EC80 with the corresponding agonist
Summary of the method: as §1

hT2R64 = hT2R64 (Homo sapiens (Human), UniProt P59538); experiment: hT2R panel inhibition, transient HEK293 G16g44, agonist Aristolochic Acid 1 μM; assay type: cell-based; conditions: HEK293, compound at 25 μM; receptor activated to EC80 with the corresponding agonist; read-out: screening result against bitter receptor 64
Chain of hT2R64 (P59538 whole entry): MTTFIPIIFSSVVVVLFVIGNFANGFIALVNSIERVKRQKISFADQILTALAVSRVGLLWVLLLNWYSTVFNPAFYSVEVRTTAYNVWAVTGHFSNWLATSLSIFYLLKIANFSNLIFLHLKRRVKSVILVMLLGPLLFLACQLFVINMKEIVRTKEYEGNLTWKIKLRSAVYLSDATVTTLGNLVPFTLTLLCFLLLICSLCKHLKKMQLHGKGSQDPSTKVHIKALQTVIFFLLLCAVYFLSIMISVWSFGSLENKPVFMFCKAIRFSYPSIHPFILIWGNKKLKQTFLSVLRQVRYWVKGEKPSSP
Summary of the method: as §1

hT2R65 = experiment: hT2R panel inhibition, transient HEK293 G16g44, agonist Oleuropein 1 mM; assay type: cell-based, human; conditions: compound at 25 μM; receptor activated to EC80 with the corresponding agonist
Summary of the method: as §1

hT2R71 = hT2R71 (Homo sapiens (Human), UniProt P59536); experiment: hT2R panel inhibition, transient HEK293 G16g44, agonist Picric Acid 10 μM; assay type: cell-based; conditions: HEK293, compound at 25 μM; receptor activated to EC80 with the corresponding agonist; read-out: screening result against bitter receptor 71
Chain of hT2R71 (P59536 whole entry): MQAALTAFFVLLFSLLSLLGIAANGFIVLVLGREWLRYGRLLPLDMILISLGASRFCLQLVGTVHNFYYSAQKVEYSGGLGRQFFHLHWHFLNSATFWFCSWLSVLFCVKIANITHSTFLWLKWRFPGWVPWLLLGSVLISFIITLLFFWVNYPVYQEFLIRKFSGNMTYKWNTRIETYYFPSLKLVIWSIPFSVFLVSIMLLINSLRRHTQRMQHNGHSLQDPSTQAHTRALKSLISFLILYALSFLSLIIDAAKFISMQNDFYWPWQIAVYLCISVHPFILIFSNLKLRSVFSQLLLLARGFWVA
Summary of the method: as §1

hT2R75 = hT2R75 (Homo sapiens (Human), UniProt P59540); experiment: hT2R panel inhibition, transient HEK293 G16g44, agonist Strychnine 1 μM; assay type: cell-based; conditions: HEK293, read-out: screening result against bitter receptor 75, compound at 25 μM; receptor activated to EC80 with the corresponding agonist
Chain of hT2R75 (P59540 whole entry): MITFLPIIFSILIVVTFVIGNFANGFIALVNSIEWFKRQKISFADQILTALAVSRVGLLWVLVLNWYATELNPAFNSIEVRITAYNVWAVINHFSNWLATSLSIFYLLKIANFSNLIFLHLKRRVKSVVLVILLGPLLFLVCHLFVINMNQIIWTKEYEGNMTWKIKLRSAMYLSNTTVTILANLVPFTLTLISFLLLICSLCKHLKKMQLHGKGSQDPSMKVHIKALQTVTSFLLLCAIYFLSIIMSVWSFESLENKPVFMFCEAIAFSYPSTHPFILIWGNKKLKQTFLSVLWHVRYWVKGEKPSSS

hT2R9 = hT2R9 (Homo sapiens (Human), UniProt Q9NYW1); experiment: hT2R panel inhibition, transient HEK293 G16g44, agonist Ofloxacin 1 mM; assay type: cell-based; conditions: HEK293, compound at 25 μM; receptor activated to EC80 with the corresponding agonist; read-out: screening result against bitter receptor 9
Chain of hT2R9 (Q9NYW1 whole entry): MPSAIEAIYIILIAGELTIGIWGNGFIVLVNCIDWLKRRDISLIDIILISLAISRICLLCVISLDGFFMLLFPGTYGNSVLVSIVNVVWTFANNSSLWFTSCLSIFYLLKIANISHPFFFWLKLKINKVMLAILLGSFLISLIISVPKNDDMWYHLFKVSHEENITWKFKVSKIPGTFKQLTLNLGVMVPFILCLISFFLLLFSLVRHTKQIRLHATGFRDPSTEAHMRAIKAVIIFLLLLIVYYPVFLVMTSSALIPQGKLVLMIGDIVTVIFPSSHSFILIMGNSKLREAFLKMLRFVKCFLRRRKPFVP
Protocol: as §2, §3

hT2R5 = hT2R5 (Homo sapiens (Human), UniProt Q9NYW4); experiment: hT2R panel inhibition, transient HEK293 G16g44, agonist Picoline 10 mM; assay type: cell-based; conditions: HEK293, compound at 25 μM; receptor activated to EC80 with the corresponding agonist; read-out: screening result against bitter receptor 5
Chain of hT2R5 (Q9NYW4 whole entry): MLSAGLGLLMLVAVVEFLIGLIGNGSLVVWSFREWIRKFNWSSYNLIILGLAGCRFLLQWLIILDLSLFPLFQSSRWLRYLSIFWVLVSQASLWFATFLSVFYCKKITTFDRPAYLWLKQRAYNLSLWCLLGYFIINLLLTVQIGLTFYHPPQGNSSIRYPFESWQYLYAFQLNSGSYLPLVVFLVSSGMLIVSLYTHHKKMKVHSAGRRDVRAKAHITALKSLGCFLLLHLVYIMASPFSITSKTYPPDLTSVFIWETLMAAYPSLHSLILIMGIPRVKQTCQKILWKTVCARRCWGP
Summary of the method: as §1

hT2R67 = experiment: hT2R panel inhibition, transient HEK293 G16g44, agonist Andrographolide 5 μM; assay type: cell-based, human; conditions: compound at 25 μM; receptor activated to EC80 with the corresponding agonist
Summary of the method: as §1

hT2R7 = hT2R7 (Homo sapiens (Human), UniProt Q9NYW3); experiment: hT2R panel inhibition, transient HEK293 G16g44, agonist Chloroquine pH6.5 10 mM; assay type: cell-based; conditions: HEK293, compound at 25 μM; receptor activated to EC80 with the corresponding agonist; read-out: screening result against bitter receptor 7
Chain of hT2R7 (Q9NYW3 whole entry): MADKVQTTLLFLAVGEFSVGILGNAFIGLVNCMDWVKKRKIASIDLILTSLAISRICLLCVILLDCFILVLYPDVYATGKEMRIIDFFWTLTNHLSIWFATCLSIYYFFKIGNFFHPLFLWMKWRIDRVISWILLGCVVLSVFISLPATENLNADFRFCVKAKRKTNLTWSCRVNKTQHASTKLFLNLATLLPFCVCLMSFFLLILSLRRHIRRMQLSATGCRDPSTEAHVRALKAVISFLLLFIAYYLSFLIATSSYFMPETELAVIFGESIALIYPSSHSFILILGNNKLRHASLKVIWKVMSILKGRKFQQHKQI
Summary of the method: as §1

[3] = read-out: IC50 on hT2R14 bitter receptor

Row | Structure (SMILES) | IC50 (hT2R14 [1]; [3]) | inhibition at 25 µM (hT2R3) | inhibition at 25 µM (hT2R4) | inhibition at 25 µM (hT2R10) | inhibition at 25 µM (hT2R14 [2]) | inhibition at 25 µM (hT2R16) | screening result against bitter receptor 44 (hT2R44) | inhibition at 25 µM (hT2R51) | screening result against bitter receptor 54 (hT2R54) | screening result against bitter receptor 55 (hT2R55) | inhibition at 25 µM (hT2R61) | screening result against bitter receptor 63 (hT2R63) | inhibition at 25 µM (hT2R64) | screening result against bitter receptor 65 (hT2R65) | inhibition at 25 µM (hT2R71) | inhibition at 25 µM (hT2R75) | inhibition at 25 µM (hT2R9) | inhibition at 25 µM (hT2R5) | screening result against bitter receptor 67 (hT2R67) | inhibition at 25 µM (hT2R7) | also measured
1 | CCCOc1ccc(CN(Cc2ccco2)S(=O)(=O)c2ccc(C(=O)O)cc2)cc1 [Example 5-8, 4-(N-(4-propoxybenzyl)-N-(furan-2-ylmethyl)sulfamoyl)benzoic acid] | 2.5 µM | 20 to 40% | 40 to 60% | 40 to 60% | > 80% | 20 to 40% | ++ (40% to 60% inhibition = ++) | 40 to 60% | + (20% to 40% inhibition = +) | ++++ (80% or greater inhibition = ++++) | 60 to 80% | ++ (40% to 60% inhibition = ++) | > 80% | ++ (40% to 60% inhibition = ++) | 40 to 60% | 20 to 40% | – | – | – | – | –
2 | COc1ccc(CN(Cc2ccccc2F)S(=O)(=O)c2ccc(C(=O)O)cc2)cc1 [Example 5-31, 4-(N-(2-fluorobenzyl)-N-(4-methoxybenzyl)sulfamoyl)benzoic acid] | – | 20 to 40% | – | – | – | – | + (20% to 40% inhibition = +) | – | – | – | – | – | – | – | – | – | 20 to 40% | – | – | – | –
3 | COc1ccc(CN(Cc2cc(OC)cc(OC)c2)S(=O)(=O)c2ccc(C(=O)O)cc2)cc1 [Example 5-67, 4-(N-(3,5-dimethoxybenzyl)-N-(4-methoxybenzyl)sulfamoyl)benzoic acid] | – | 40 to 60% | – | 40 to 60% | 60 to 80% | 20 to 40% | ++ (40% to 60% inhibition = ++) | – | ++ (40% to 60% inhibition = ++) | ++++ (80% or greater inhibition = ++++) | 40 to 60% | ++++ (80% or greater inhibition = ++++) | 60 to 80% | + (20% to 40% inhibition = +) | 40 to 60% | – | 20 to 40% | 20 to 40% | + (20% to 40% inhibition = +) | – | IC50 (hT2R14 [1]; Table C, read-out: hT2R14 IC50): 12.1 µM
4 | O=C(O)c1ccc(S(=O)(=O)N(Cc2ccccc2)Cc2cccc(C(=O)O)c2)cc1 [Example 5-76, 3-((N-benzyl-4-carboxyphenylsulfonamido)methyl)benzoic acid] | – | 20 to 40% | – | – | – | – | – | – | – | – | 40 to 60% | ++ (40% to 60% inhibition = ++) | – | – | 20 to 40% | – | 20 to 40% | 20 to 40% | + (20% to 40% inhibition = +) | – | –
5 | COc1ccc(CN(Cc2ccc(C(=O)O)cc2)S(=O)(=O)c2ccccc2)cc1 [Example 5-102, 4-((N-(4-methoxybenzyl)phenylsulfonamido)methyl) benzoic acid] | – | 40 to 60% | 40 to 60% | 20 to 40% | > 80% | 20 to 40% | +++ (60% to 80% inhibition = +++) | 20 to 40% | + (20% to 40% inhibition = +) | ++++ (80% or greater inhibition = ++++) | > 80% | + (20% to 40% inhibition = +) | 60 to 80% | ++ (40% to 60% inhibition = ++) | 60 to 80% | 20 to 40% | – | 20 to 40% | + (20% to 40% inhibition = +) | 40 to 60% | IC50 (hT2R14 [1]; Table C, read-out: hT2R14 IC50): 2.22 µM
6 | O=C(O)c1ccc(CN(Cc2ccccc2F)S(=O)(=O)c2ccccc2)cc1 [Example 5-103, 4-((N-(2-fluorobenzyl)phenylsulfonamido)methyl)-benzoic acid] | – | 40 to 60% | 40 to 60% | 20 to 40% | > 80% | 20 to 40% | +++ (60% to 80% inhibition = +++) | 20 to 40% | ++ (40% to 60% inhibition = ++) | ++++ (80% or greater inhibition = ++++) | > 80% | ++ (40% to 60% inhibition = ++) | > 80% | ++ (40% to 60% inhibition = ++) | > 80% | 20 to 40% | – | 20 to 40% | + (20% to 40% inhibition = +) | 20 to 40% | IC50 (hT2R14 [1]; Table C, read-out: hT2R14 IC50): 0.429 µM
7 | COc1cccc(CN(Cc2ccco2)S(=O)(=O)c2ccc(C(=O)O)cc2)c1 [Example 5-6, 4-(N-(furan-2-ylmethyl)-N-(3-methoxybenzyl)sulfamoyl)benzoic acid] | 10 µM | 20 to 40% | 20 to 40% | 40 to 60% | > 80% | 20 to 40% | ++ (40% to 60% inhibition = ++) | 40 to 60% | + (20% to 40% inhibition = +) | ++++ (80% or greater inhibition = ++++) | > 80% | ++++ (80% or greater inhibition = ++++) | > 80% | + (20% to 40% inhibition = +) | 40 to 60% | 20 to 40% | – | – | – | 20 to 40% | –
8 | COc1cc(OC)c(CN(Cc2ccccc2)S(=O)(=O)c2ccc(C(=O)O)cc2)c(OC)c1 [Example 5-15, 4-(N-benzyl-N-(2,4,6-trimethoxybenzyl)sulfamoyl)benzoic acid] | 10.8 µM | 40 to 60% | – | 40 to 60% | > 80% | 20 to 40% | – | – | – | – | > 80% | – | 60 to 80% | + (20% to 40% inhibition = +) | 60 to 80% | – | 20 to 40% | 20 to 40% | – | 20 to 40% | –
